Here are results for 5 compounds from ChEMBL document CHEMBL3217753, “Discovery of selective 2,4-diaminopyrimidine-based photoaffinity probes for glyoxalase I” (Medchemcomm, 2014).

Calls of active or inactive are those of the source. The calls are words filed in the database; no cut-off is given here.

For test [1], the system named is HeLa. The test can be described thus: Ratio of GI50 for human HeLa cells in presence of 5 mM glucose to GI50 for human HeLa cells in presence of 25 mM glucose. The test is classed as functional.
Test [2] relates to A549. Kind of test: Growth inhibition of human A549 cells after 48 hrs by CellTiter-Glo assay in presence of 5 mM glucose. Format: functional. Conditions: A549, 48 h. For orientation: In ATP-based viability assays light output follows the ATP content of the culture.
The test system of test [3] is A549. Kind of test: Growth inhibition of human A549 cells after 48 hrs by CellTiter-Glo assay in presence of 25 mM glucose. Format: functional. Conditions: A549, 48 h.
Test [4] has as its system HeLa. Kind of test: Growth inhibition of human HeLa cells after 48 hrs by CellTiter-Glo assay in presence of 5 mM glucose. The test is classed as functional.
Test [5] has as its system HeLa. The test can be described thus: Growth inhibition of human HeLa cells after 48 hrs by CellTiter-Glo assay in presence of 25 mM glucose. The test is classed as functional.
Test [6] has as its system NCI-H522. Kind of test: Growth inhibition of human NCI-H522 cells after 48 hrs by CellTiter-Glo assay in presence of 5 mM glucose. The test is classed as functional. The note with it: NCI-H522, 48 h.
The test system of test [7] is NCI-H522. Kind of test: Growth inhibition of human NCI-H522 cells after 48 hrs by CellTiter-Glo assay in presence of 25 mM glucose. Format: functional. The note with it: NCI-H522, 48 h.
Test [8] concerns the target T1, Lactoylglutathione lyase (Homo sapiens, UniProt Q04760). The test can be described thus: Inhibition of recombinant GLO-1 (unknown origin) assessed as S-D-lactoylglutathione formation preincubated for 1 hr followed by methylglyoxal and GSH addition measured after 9 mins by spectrophotometric analysis.
Target sequence in this assay (Q04760 whole entry): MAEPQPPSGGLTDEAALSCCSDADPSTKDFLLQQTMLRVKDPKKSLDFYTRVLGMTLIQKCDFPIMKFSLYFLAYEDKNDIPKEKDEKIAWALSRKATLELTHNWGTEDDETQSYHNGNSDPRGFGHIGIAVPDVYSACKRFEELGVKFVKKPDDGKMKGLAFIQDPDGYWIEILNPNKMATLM
Test [9] concerns the target T1, Lactoylglutathione lyase. The test can be described thus: Competitive binding affinity to dimeric form of GLO-1 in HEK293T cells at 20 uM incubated for 6 hrs followed by UV-irradiation for 1 hr by fluorescence assay in presence of N-(4-(4-(5-fluoro-4-(2-(methylsulfonamido)phenylamino)pyrimidin-2-ylamino)benzoyl)phenyl)hex-5-ynamide. Conditions: HEK-293T. Format: cell-based.
Target sequence in this assay (Q04760 2-184 limits assumed): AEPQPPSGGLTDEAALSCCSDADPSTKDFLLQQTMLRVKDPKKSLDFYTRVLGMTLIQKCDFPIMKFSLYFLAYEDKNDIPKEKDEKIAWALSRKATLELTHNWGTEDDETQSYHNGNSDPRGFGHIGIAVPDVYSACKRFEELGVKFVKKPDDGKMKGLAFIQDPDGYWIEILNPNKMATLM

Test [10] addresses T1, Lactoylglutathione lyase. The test can be described thus: Competitive binding affinity to monomeric form of GLO-1 in HEK293T cells at 20 uM incubated for 6 hrs followed by UV-irradiation for 1 hr by fluorescence assay in presence of N-(4-(4-(5-fluoro-4-(2-(methylsulfonamido)phenylamino)pyrimidin-2-ylamino)benzoyl)phenyl)hex-5-ynamide. Conditions: HEK-293T. The test is classed as cell-based.
Target sequence in this assay (Q04760 2-184 limits assumed): as above

Test [11] deals with T1, Lactoylglutathione lyase. The test can be described thus: Competitive binding affinity to dimeric form of GLO-1 in HEK293T cell lysate at 20 uM after overnight incubation followed by UV-irradiation for 1 hr by fluorescence assay in presence of N-(4-(4-(5-fluoro-4-(2-(methylsulfonamido)phenylamino)pyrimidin-2-ylamino)benzoyl)phenyl)hex-5-ynamide. The test is classed as cell-based. Conditions: HEK-293T.
Target sequence in this assay (Q04760 2-184 limits assumed): as above

Test [12] has as its target T1, Lactoylglutathione lyase. Kind of test: Competitive binding affinity to monomeric form of GLO-1 in HEK293T cell lysate at 20 uM after overnight incubation followed by UV-irradiation for 1 hr by fluorescence assay in presence of N-(4-(4-(5-fluoro-4-(2-(methylsulfonamido)phenylamino)pyrimidin-2-ylamino)benzoyl)phenyl)hex-5-ynamide. Conditions: HEK-293T. Format: cell-based.
Target sequence in this assay (Q04760 2-184 limits assumed): as above

The subject of test [13] is HeLa. The test can be described thus: Induction of apoptosis in human HeLa cells under high glucose condition assessed as nuclear fragmentation at 5 uM after 24 hrs by DAPI staining-based fluorescence microscopic analysis. The test is classed as functional, cell-based.
Test [14] relates to HeLa. Kind of test: Induction of apoptosis in human HeLa cells under high glucose condition assessed as caspase-3 degradation at 1 to 50 uM after 24 hrs by Western blotting analysis. Format: functional, cell-based. (In general: A western blot detects proteins with antibodies after separation by electrophoresis.)
The target in test [15] is T1, Lactoylglutathione lyase. The test can be described thus: Inhibition of GLO-1 in human HeLa cells under high glucose condition assessed as increase in methylglyoxal level at 5 uM after 24 hrs by spectrophotometric analysis. The test is classed as cell-based.
Target sequence in this assay (Q04760 2-184 limits assumed): as above
In test [16] the target is T1, Lactoylglutathione lyase. The test can be described thus: Competitive binding affinity to GLO-1 in human HeLa cells at 100 uM incubated for 6 hrs followed by UV-irradiation for 1 hr by fluorescence microscopic analysis in presence of N-(4-(4-(5-fluoro-4-(2-(methylsulfonamido)phenylamino)pyrimidin-2-ylamino)benzoyl)phenyl)hex-5-ynamide. The test is classed as cell-based.
Target sequence in this assay (Q04760 2-184 limits assumed): as above

For test [17], the target named is T1, Lactoylglutathione lyase. The test can be described thus: Competitive binding affinity to human recombinant GLO-1 at 50 uM in presence of N-(4-(4-(5-fluoro-4-(2-(methylsulfonamido)phenylamino)pyrimidin-2-ylamino)benzoyl)phenyl)-5-((3aS,4S,6aR)-2-oxohexahydro-1H-thieno[3,4-d]imidazol-4-yl)pentanamide.
Test [18] has as its target T1, Lactoylglutathione lyase. Kind of test: Competitive binding affinity to GLO-1 in HEK293T cell lysate at 50 uM after overnight incubation followed by UV-irradiation for 1 hr by Western blotting analysis in presence of N-(4-(4-(5-fluoro-4-(2-(methylsulfonamido)phenylamino)pyrimidin-2-ylamino)benzoyl)phenyl)-5-((3aS,4S,6aR)-2-oxohexahydro-1H-thieno[3,4-d]imidazol-4-yl)pentanamide. Format: cell-based. The note with it: HEK-293T.

Test [19] has as its target T1, Lactoylglutathione lyase. Kind of test: Competitive binding affinity to GLO-1 in HEK293T cell lysate at 50 uM after overnight incubation followed by UV-irradiation for 1 hr by pull-down assay in presence of N-(4-(4-(5-fluoro-4-(2-(methylsulfonamido)phenylamino)pyrimidin-2-ylamino)benzoyl)phenyl)-5-((3aS,4S,6aR)-2-oxohexahydro-1H-thieno[3,4-d]imidazol-4-yl)pentanamide. Conditions: HEK-293T. Format: cell-based.

The target of test [20] is T1, Lactoylglutathione lyase. The test can be described thus: Binding affinity to GLO-1 in live HEK293T cells by pull-down assay. Conditions: HEK-293T. The test is classed as cell-based.

With `CS(=O)(=O)Nc1ccccc1Nc1nc(Nc2ccc(C(=O)OCc3ccccc3)cc2)ncc1F`, the “Ratio IC50” value in the test with HeLa [1] is 2.6. Further, the GI50 with A549 [2] was above 50 µM; in the test with A549 [3], above 50 µM; in the test with HeLa [4], 61.9 µM; in the test on HeLa [5], 37 µM; with NCI-H522 [6] it was 40.2 µM; in the test with NCI-H522 [7] it was 16.5 µM. For the same compound, the IC50 on Lactoylglutathione lyase [8] turned out to be 0.0513 µM.
For the compound `C#CCCCC(=O)Nc1ccc(C(=O)c2ccc(Nc3ncc(F)c(Nc4ccccc4NS(C)(=O)=O)n3)cc2)cc1`, the outcome at Lactoylglutathione lyase [9], at Lactoylglutathione lyase [10], on Lactoylglutathione lyase [11], at Lactoylglutathione lyase [12], in the test with HeLa [13] and in the test on HeLa [14] was Active. Besides, the result on Lactoylglutathione lyase [16] was Active. On Lactoylglutathione lyase [15], the inhibition result was “Active”. The GI50 with A549 [2] was found to be 15.5 µM; with A549 [3], 13.3 µM; in the test with HeLa [4] it was 5.7 µM; in the test with HeLa [5], 4.6 µM; in the test on NCI-H522 [6] it was 2.7 µM; in the test on NCI-H522 [7], 2.9 µM. Further, the concentration for half-maximal inhibition (IC50) at Lactoylglutathione lyase [8] is 0.0264 µM.
For `CS(=O)(=O)Nc1ccccc1Nc1nc(Nc2ccc(Oc3ccccc3)cc2)ncc1F`, the “Ratio IC50” value in the test on HeLa [1] was found to be 2.6. The GI50 in the test on A549 [2] stood at 37.4 µM; in the test with A549 [3] it was 26.9 µM; in the test on HeLa [4] it was 14 µM; with HeLa [5], 7.3 µM; with NCI-H522 [6], 8.3 µM; in the test with NCI-H522 [7] it was 7.3 µM. The IC50 at Lactoylglutathione lyase [8] was 0.0458 µM.
Regarding `CS(=O)(=O)Nc1ccccc1Nc1nc(Nc2ccc(C(=O)c3ccc(NC(=O)CCCC[C@@H]4SC[C@@H]5NC(=O)N[C@@H]54)cc3)cc2)ncc1F`, the outcome on Lactoylglutathione lyase [17], at Lactoylglutathione lyase [18] and on Lactoylglutathione lyase [19] was Active. Moreover, the outcome at Lactoylglutathione lyase [20] was inactive.
`CS(=O)(=O)Nc1ccccc1Nc1nc(Nc2ccc(Cl)cc2)ncc1F`: in the test with HeLa [1], the “Ratio IC50” value is given as 2.6. For the same compound, the GI50 in the test on A549 [2] is above 50 µM; in the test with A549 [3], above 50 µM; in the test on HeLa [4], 61 µM; in the test with HeLa [5], 23.2 µM; in the test on NCI-H522 [6], 25 µM; in the test on NCI-H522 [7] it was 12.2 µM. Besides, the IC50 at Lactoylglutathione lyase [8] amounted to 0.0539 µM.

As usually defined, the GI50 is the concentration that inhibits growth by half. As usually defined, the IC50 is the concentration at which inhibition is half-maximal.
